Laboratory results reported in publication PMC3349722, “Prediction of Drug-Target Interactions and Drug Repositioning via Network-Based Inference” (PLoS Computational Biology, 2012).
Structures can show the parent of a compound that is named as a salt. Where two headings read alike, the source gives them in different places.

Legend:
ERα and ERβ = assay: Yeast two-hybrid system-based assay, summary statements on ER (subtype not separated)
ERα = target: T1, ERα (Homo sapiens, UniProt P03372); assay: Yeast two-hybrid system-based assay (ERα LBD/SRC1, α-galactosidase), agonist and antagonist mode; assay type: cell-based; settings: for Inhibitive ratio % (10 μM), ERα: antagonist assay with 1 nM E2; for Agonistic activities (10 μM), ERα: DMSO = 1; for EC50: agonist testing
T1 sequence (P03372 301-553): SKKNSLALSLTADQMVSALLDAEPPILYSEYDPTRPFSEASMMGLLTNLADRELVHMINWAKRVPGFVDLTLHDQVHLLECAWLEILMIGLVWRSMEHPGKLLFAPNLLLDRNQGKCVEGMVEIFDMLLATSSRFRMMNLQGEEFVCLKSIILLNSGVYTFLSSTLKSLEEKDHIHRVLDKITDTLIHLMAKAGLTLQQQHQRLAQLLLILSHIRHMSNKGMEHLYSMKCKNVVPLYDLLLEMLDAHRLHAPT

ERβ = ERβ (Homo sapiens, UniProt Q92731); assay: Yeast two-hybrid system-based assay (ERβ LBD/SRC1, α-galactosidase), agonist and antagonist mode; assay type: cell-based; settings: for Inhibitive Ratio% (10 μM), ERβ: antagonist assay with 1 nM E2; for IC50: read-out: IC50 on ERβ (antagonistic activity)
human recombinant DPP-IV = target: T2, human recombinant DPP-IV (Homo sapiens, UniProt P27487); assay: Dipeptidyl peptidase-IV inhibition assay (DPP-IV Drug Discovery Kit, fluorimetric); assay type: biochemical; settings: for Inhibition Ratio (%) to DPP-IV: test concentration not given
T2 construct: purchased Biomol
Description: The inhibitory effects of compounds on human recombinant DPP-IV was determined using a DPP-IV Drug Discovery Kit (Biomol, USA) according to the manufacturer's instructions. The activity of DPP-IV was detected in a Synergy™ 2 Multi-Mode Microplate Reader (BioTek) at an excitation wavelength of 380 nm and an emission wavelength of 460 nm. […] IC50 values were determined using the GraphPad Prism 4 software with three independent determinations.
Table S4. The inhibitive activities profiles of nine approved drugs for dipeptidyl peptidase -IV
(DPP -IV ) enzyme inhibition assay. The inhibitory effects of compounds on human recombinant
DPP4 was determined using a DPP -IV Drug Discovery Kit (Biomol, USA) according to the
manufacturer ’s instructions. The DPP-IV Drug Discovery Kit is a complete assay system designed
to screen DPP 4 small molecule inhibitors. The fluorimetric assay is based on the cleavage of
7- a mino -4-methylcoumarin (AMC) moiety from peptide substrate (H-Gly-P ro-AMC), which
increases its fluorescence intensity at 460 nm. Compounds dilutions were prepared from stock in
DMSO and diluted with assay buffer for inhibition assay. A 40 μL solution of DPP -IV enzyme in
assa y buffer was incubated with 10μ L of various concentrations of test compoundsolutions for 10
min at room temperature. The reaction was initiated b y the addition of 50 μL of H-Gly-P ro- AMC
with a final concentration of 5 μM. The activity of DPP4 was detected in a Synergy™ 2
Multi-Mode Microplate Reader (BioTek) at an excitation wavelength of 380 nm and an emission
wavelength of 460 nm. […] IC 50 values were
determined by using the G raphP ad Prism 4 software with three independent determinations.

MDA-MB-231 cells = assay: MTT assay of cell proliferation; assay type: cell-based; settings: Homo sapiens, MDA-MB-231 breast cancer cell line, 24 h, read-out: Antiproliferative activity IC50
Description: Cell proliferation was quantified by MTT assay. MDA-MB-231 cells were seeded at a density of 1.5×10^4 in a 96-well plate with DMEM/F12 supplemented with 10% charcoal stripped FBS without phenol red, and then incubated with the tested compounds in humidified air containing 5% CO2 at 37°C. After incubation for 24 h, 20 µL of 5 mg/mL MTT was added and incubated for another 4 h. Then the converted dye was dissolved in 100 µL of DMSO and the absorbance was measured at 570 nm.

T2 sequence (P27487 whole entry): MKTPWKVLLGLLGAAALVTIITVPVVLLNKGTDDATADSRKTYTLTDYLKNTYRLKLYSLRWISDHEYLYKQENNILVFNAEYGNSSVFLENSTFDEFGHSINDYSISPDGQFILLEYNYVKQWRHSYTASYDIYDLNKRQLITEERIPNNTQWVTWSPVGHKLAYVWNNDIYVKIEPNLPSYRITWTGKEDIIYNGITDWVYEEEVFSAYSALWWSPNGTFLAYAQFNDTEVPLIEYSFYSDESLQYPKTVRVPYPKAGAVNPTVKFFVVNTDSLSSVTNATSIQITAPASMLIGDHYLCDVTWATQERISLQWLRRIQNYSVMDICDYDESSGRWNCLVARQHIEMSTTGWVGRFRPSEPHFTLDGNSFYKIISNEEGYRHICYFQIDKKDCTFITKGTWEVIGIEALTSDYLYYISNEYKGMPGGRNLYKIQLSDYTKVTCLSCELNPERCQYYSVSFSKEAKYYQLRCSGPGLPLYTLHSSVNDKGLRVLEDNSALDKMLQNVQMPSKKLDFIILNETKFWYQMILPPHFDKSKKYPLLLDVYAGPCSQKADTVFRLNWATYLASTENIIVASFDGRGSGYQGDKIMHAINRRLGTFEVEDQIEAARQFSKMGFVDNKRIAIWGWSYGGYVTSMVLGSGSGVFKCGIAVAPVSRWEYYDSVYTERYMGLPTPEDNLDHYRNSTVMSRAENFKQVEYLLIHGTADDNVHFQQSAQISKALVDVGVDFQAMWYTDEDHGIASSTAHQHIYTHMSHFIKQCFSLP
Sequence of ERβ (Q92731 248-510): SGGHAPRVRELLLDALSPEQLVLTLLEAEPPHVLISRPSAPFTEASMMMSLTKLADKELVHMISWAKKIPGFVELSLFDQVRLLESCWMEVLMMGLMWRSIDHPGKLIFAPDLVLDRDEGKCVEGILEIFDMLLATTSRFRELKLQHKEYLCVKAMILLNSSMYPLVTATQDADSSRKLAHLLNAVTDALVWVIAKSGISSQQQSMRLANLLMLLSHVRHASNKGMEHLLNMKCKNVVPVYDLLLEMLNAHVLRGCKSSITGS

CCC(C)n1ncn(-c2ccc(N3CCN(c4ccc(OCC5COC(Cn6cncn6)(c6ccc(Cl)cc6Cl)O5)cc4)CC3)cc2)c1=O (stereo not shown) [Itraconazole]
IC50 or EC50 values on ER (ERα and ERβ): less than 1 μM | IC50 or EC50 values on ER (ERα and ERβ; listed as itraconazole): less than 10 μM | Inhibitive ratio % (10 μM), ERα (ERα): 8.19% | Agonistic activities (10 μM), ERα (ERα): 4.132 | EC50 (ERα; REC50 on ERα (concentration showing 50% of the maximum agonistic activity of E2), relative to E2): 0.32 µM | EC50 (ERα; read-out: EC50 on ERα (agonistic activity)): 0.2 µM | Inhibitive Ratio% (10 μM), ERβ (ERβ): 51.99% | Agonistic activities (10 μM), ERβ (ERβ; DMSO = 1): 1.890 | IC50 (ERβ; antagonist assay): 0.28 µM

17-hydroxyprogesterone
Inhibitive Ratio% (10 μM), ERβ (ERβ): 13.01% | Agonistic activities (10 μM), ERβ (ERβ; DMSO = 1): 0.961

CC[C@@H]1C(=O)OC[C@@H]1Cc1cncn1C.Cl [Pilocarpine HCl]
Agonistic activities (10 μM), ERα (ERα): 1.008

C[C@]12CC[C@@H]3c4ccc(O)cc4CC[C@H]3[C@@H]1CC[C@@H]2O [E2, estradiol]
Agonistic activities, ERβ, E2 control (ERβ; 1 nM, DMSO = 1): 5.77

CN/C(=N/CCSCc1nc[nH]c1C)NC#N [Cimetidine]
Inhibitive ratio % (10 μM), ERα (ERα): 2.4% | Agonistic activities (10 μM), ERα (ERα): 1.018

CC[C@H](C)C(=O)O[C@H]1C[C@@H](C)C=C2C=C[C@H](C)[C@H](CC[C@@H]3C[C@@H](O)CC(=O)O3)[C@H]21 [Lovastatin]
Inhibition Ratio (%) to DPP-IV (human recombinant DPP-IV): 9.49%

CCC1(c2ccc(N)cc2)CCC(=O)NC1=O (racemic) [Dl-aminoglutethimide]
Agonistic activities (10 μM), ERα (ERα): 0.956

CC(C)C(=O)Nc1ccc([N+](=O)[O-])c(C(F)(F)F)c1 [Flutamide]
Inhibitive Ratio% (10 μM), ERβ (ERβ): 2.83% | Agonistic activities (10 μM), ERβ (ERβ; DMSO = 1): 0.949

N[C@@H]1C[C@H]1c1ccccc1 (racemic) [Tranylcypromine]
Inhibitive ratio % (10 μM), ERα (ERα): 4.3% | Agonistic activities (10 μM), ERα (ERα): 0.988 | Inhibitive Ratio% (10 μM), ERβ (ERβ): 0% | Agonistic activities (10 μM), ERβ (ERβ; DMSO = 1): 0.965

O=c1[nH]c2ccccc2n1C1CCN(CCCC(c2ccc(F)cc2)c2ccc(F)cc2)CC1 [Pimozide]
Inhibitive ratio % (10 μM), ERα (ERα): 4.58% | Agonistic activities (10 μM), ERα (ERα): 0.955

CS(=O)(=O)CCNCc1ccc(-c2ccc3ncnc(Nc4ccc(OCc5cccc(F)c5)c(Cl)c4)c3c2)o1 [Lapatinib]
Inhibition Ratio (%) to DPP-IV (human recombinant DPP-IV): 39.64% | Inhibitive ratio % (10 μM), ERα (ERα): 14.01% | Agonistic activities (10 μM), ERα (ERα): 0.995

COc1ccc2[nH]cc(CCNC(C)=O)c2c1 [Melatonin]
Inhibitive Ratio% (10 μM), ERβ (ERβ): 0% | Agonistic activities (10 μM), ERβ (ERβ; DMSO = 1): 0.914

Cc1ccc(C)c(OCCCC(C)(C)C(=O)O)c1 [Gemfibrozil]
Inhibition Ratio (%) to DPP-IV (human recombinant DPP-IV): 17.35%

CC(=O)N1CCN(c2ccc(OCC3COC(Cn4ccnc4)(c4ccc(Cl)cc4Cl)O3)cc2)CC1 (stereo not shown) [Ketoconazole]
IC50 (MDA-MB-231 cells): 8.95 µM | IC50 or EC50 values on ER (ERα and ERβ): less than 1 μM | IC50 or EC50 values on ER (ERα and ERβ; listed as ketoconazole): less than 10 μM | Agonistic activities (10 μM), ERβ (ERβ; DMSO = 1): 0.853 | IC50 (ERβ): 0.79 µM

CC#C[C@]1(O)CC[C@H]2[C@@H]3CCC4=CC(=O)CCC4=C3[C@@H](c3ccc(N(C)C)cc3)C[C@@]21C [Mifepristone]
Inhibitive ratio % (10 μM), ERα (ERα): 0% | Agonistic activities (10 μM), ERα (ERα): 1.463 | Inhibitive Ratio% (10 μM), ERβ (ERβ): 27.16% | Agonistic activities (10 μM), ERβ (ERβ; DMSO = 1): 1.080

NC(=O)N1c2ccccc2C=Cc2ccccc21 [Carbamazepine]
Inhibition Ratio (%) to DPP-IV (human recombinant DPP-IV): 19.67%

COC(=O)C1=C(C)NC(C)=C(C(=O)OCCN(C)Cc2ccccc2)C1c1cccc([N+](=O)[O-])c1 (stereo not shown) [Nicardipine]
Inhibition Ratio (%) to DPP-IV (human recombinant DPP-IV): 21.24% | Inhibitive ratio % (10 μM), ERα (ERα): 15.21% | Agonistic activities (10 μM), ERα (ERα): 0.962

C=CCN1CC[C@]23c4c5ccc(O)c4O[C@H]2C(=O)CC[C@@]3(O)[C@H]1C5 [Naloxone HCl]
Inhibitive Ratio% (10 μM), ERβ (ERβ): 0% | Agonistic activities (10 μM), ERβ (ERβ; DMSO = 1): 1.051

CC(=O)OCC(CCn1cnc2cnc(N)nc21)COC(C)=O [Famciclovir]
Inhibitive Ratio% (10 μM), ERβ (ERβ): 0% | Agonistic activities (10 μM), ERβ (ERβ; DMSO = 1): 0.894

Nc1nc2c(ncn2CCC(CO)CO)c(=O)[nH]1 [Penciclovir]
Inhibitive Ratio% (10 μM), ERβ (ERβ): 0% | Agonistic activities (10 μM), ERβ (ERβ; DMSO = 1): 0.947

CCC(C)(C)C(=O)O[C@H]1C[C@@H](C)C=C2C=C[C@H](C)[C@H](CC[C@@H]3C[C@@H](O)CC(=O)O3)[C@H]21 [Simvastatin]
IC50 (MDA-MB-231 cells): 1.49 µM

N#Cc1ccc(C(c2ccc(C#N)cc2)n2cncn2)cc1 [Letrozole]
Inhibitive Ratio% (10 μM), ERβ (ERβ): 0% | Agonistic activities (10 μM), ERβ (ERβ; DMSO = 1): 0.846

O=C(O)Cc1ccccc1Nc1c(Cl)cccc1Cl [Diclofenac]
IC50 or EC50 values on ER (ERα and ERβ): less than 10 μM | Agonistic activities (10 μM), ERβ (ERβ; DMSO = 1): 0.846 | IC50 (ERβ): 2.32 µM

CN(C)CCCN1c2ccccc2Sc2ccc(Cl)cc21 [Chlorpromazine HCl]
Inhibitive Ratio% (10 μM), ERβ (ERβ): 3.11% | Agonistic activities (10 μM), ERβ (ERβ; DMSO = 1): 0.981

CC(C)(C#N)c1cc(Cn2cncn2)cc(C(C)(C)C#N)c1 [Anastrozole]
Agonistic activities (10 μM), ERβ (ERβ; DMSO = 1): 1.011

NS(=O)(=O)Cc1noc2ccccc12 [Zonisamide]
Agonistic activities (10 μM), ERβ (ERβ; DMSO = 1): 1.029

CN(C)C(=O)C(CCN1CCC(O)(c2ccc(Cl)cc2)CC1)(c1ccccc1)c1ccccc1 [Loperamide]
Inhibitive ratio % (10 μM), ERα (ERα): 6.18% | Agonistic activities (10 μM), ERα (ERα): 0.934 | Inhibitive Ratio% (10 μM), ERβ (ERβ): 0% | Agonistic activities (10 μM), ERβ (ERβ; DMSO = 1): 0.910

CC(C)(O)c1ccccc1CC[C@@H](SCC1(CC(=O)O)CC1)c1cccc(/C=C/c2ccc3ccc(Cl)cc3n2)c1 [Montelukast]
Inhibition Ratio (%) to DPP-IV (human recombinant DPP-IV): 49.7% | IC50 (human recombinant DPP-IV; three independent determinations): 9.79 µM

CCc1ccc(CCOc2ccc(CC3SC(=O)NC3=O)cc2)nc1 (stereo not shown) [Pioglitazone]
Inhibition Ratio (%) to DPP-IV (human recombinant DPP-IV): 18.63%
